Reference: patent US20080300231A1, “Antibacterial amide macrocycles VI” (priority 2005, published 2008)
In brackets after ≈: the same amount, converted by molar mass.

How the values were obtained:
[1] = tested on: Enterococcus faecium L4001; test: Minimum inhibitory concentration (MIC), E. faecium L4001; format: cell-based; settings: E. faecium L4001; test medium with 10% FCS
Procedure: (§1) Determination of the Minimum Inhibitory Concentration (MIC)
(§2) The minimum inhibitory concentration (MIC) is the minimum concentration of an antibiotic with which the growth of a test microbe is inhibited over 18-24 h. The inhibitor concentration can in these cases be determined by standard microbiological methods (see, for example, The National Committee for Clinical Laboratory Standards. Methods for dilution antimicrobial susceptibility tests for bacteria that grow aerobically; approved standard-fifth edition. NCCLS document M7-A5 [ISBN 1-56238-394-9]. NCCLS, 940 West Valley Road, Suite 1400, Wayne, Pa. 19087-1898 USA, 2000). The MIC of the compounds of the invention is determined in the liquid dilution test on the 96-well microtitre plate scale. The bacterial microbes are cultivated in a minimal medium (18.5 mM Na2HPO4, 5.7 mM KH2PO4, 9.3 mM NH4Cl, 2.8 mM MgSO4, 17.1 mM NaCl, 0.033 μg/ml of thiamine hydrochloride, 1.2 μg/ml of nicotinic acid, 0.003 μg/ml of biotin, 1% glucose, 25 μg/ml of each proteinogenic amino acid with the exception of phenylalanine; [H.-P. Kroll; unpublished]) with addition of 0.4% BH broth (test medium). In the case of Enterococcus faecium L4001, heat-inactivated fetal calf serum (FCS; GibcoBRL, Germany) is added to the test medium in a final concentration of 10%. Overnight cultures of the test microbes are diluted to an OD578 of 0.001 (to 0.01 in the case of enterococci) in fresh test medium, and incubated 1:1 with dilutions of the test substances (1:2 dilution steps) in test medium (200 μl final volume). The cultures are incubated at 37° C. for 18-24 hours; enterococci in the presence of 5% CO2
(§3) The lowest substance concentration in each case at which no visible bacterial growth occurs any more is defined as the MIC.
(§4) Alternative Method for Determining the Minimum Inhibitory Concentration (MIC)
(§5) The minimum inhibitory concentration (MIC) is the minimum concentration of an antibiotic with which the growth of a test microbe is inhibited over 18-24 h. The inhibitor concentration can in these cases be determined by standard microbiological methods with modified medium in an agar dilution test (see, for example, The National Committee for Clinical Laboratory Standards. Methods for dilution antimicrobial susceptibility tests for bacteria that grow aerobically; approved standard-fifth edition. NCCLS document M7-A5 [ISBN 1-56238-394-9]. NCCLS, 940 West Valley Road, Suite 1400, Wayne, Pa. 19087-1898 USA, 2000). The bacterial microbes are cultivated on 1.5% agar plates which contain 20% defibrinated horse blood. The test microbes, which are incubated overnight on Columbia blood agar plates (Becton-Dickinson), are diluted in PBS, adjusted to a microbe count of about 5×10^5 microbes/ml and placed dropwise (1-3 μl) on test plates. The test substances comprise different dilutions of the test substances (1:2 dilution steps). The cultures are incubated at 37° C. in the presence of 5% CO2 for 18-24 hours.
(§6) The lowest substance concentration in each case at which no visible bacterial growth occurred any more is defined as the MIC and is reported in μg/ml.

S. aureus 133 = test: Minimum inhibitory concentration (MIC), S. aureus 133; format: cell-based; settings: S. aureus 133
Procedure: as §1, §2, §3, §4, §5, §6

Which results are given for `NC[C@H](O)C[C@@H]1NC(=O)[C@@H](N)Cc2cc(ccc2O)-c2ccc(O)c(c2)C[C@@H](C(=O)O)NC1=O` [Biphenomycin B, biphenomycin B, reference compound]?
MIC E. faecium L4001 [1]: 0.5 µg/mL (≈ 1.06 µM); MIC S. aureus 133 (S. aureus 133): <0.03 µg/mL
